Experiments:
[1] = molecular target: [35S]-TBPS binding, rat brain cortical membranes; assay: Steroid inhibition of [35S]-TBPS binding; conditions: 3 nM [35S]-TBPS, in the presence of 5 mM GABA
Method in brief: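 In the presence of […], compounds (DMSO 0.5% final) competed with 3 nM [35S]-TBPS for Sprague-Dawley rat cortical membranes, pH 7.4 phosphate buffer, 90 min, room temperature. Filtration and scintillation counting; specific binding defined by […]; IC50 and maximal inhibition fitted per experiment, averaged as mean ± SEM.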

[2] = molecular target: human GABAA receptors composed of the α1β2γ2 subunits (Homo sapiens (Human), UniProt P14867+P18507+P47870); assay: α1β2γ2 SyncroPatch automated patch clamp assay; format: cell-based; conditions: for EC50: HEK cells, potentiation of submaximal GABA current, clamped at −120 mV; for α1β2γ2 EMAX: peak current after GABA+compound divided by peak current after GABA alone
Sequence of human GABAA receptors composed of the α1β2γ2 subunits (P14867 28-456 limits assumed): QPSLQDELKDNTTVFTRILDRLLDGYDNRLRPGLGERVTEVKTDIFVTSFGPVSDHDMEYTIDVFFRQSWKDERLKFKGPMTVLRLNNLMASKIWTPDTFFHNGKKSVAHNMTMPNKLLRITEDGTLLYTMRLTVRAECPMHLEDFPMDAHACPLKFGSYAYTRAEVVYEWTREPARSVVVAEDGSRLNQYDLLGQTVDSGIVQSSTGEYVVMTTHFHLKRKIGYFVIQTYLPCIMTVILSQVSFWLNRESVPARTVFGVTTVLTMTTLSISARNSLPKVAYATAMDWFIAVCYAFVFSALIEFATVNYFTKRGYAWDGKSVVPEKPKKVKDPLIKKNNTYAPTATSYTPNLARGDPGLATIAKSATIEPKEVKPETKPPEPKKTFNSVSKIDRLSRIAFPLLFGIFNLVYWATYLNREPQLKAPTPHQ
Sequence of human GABAA receptors composed of the α1β2γ2 subunits (P47870 25-512 limits assumed): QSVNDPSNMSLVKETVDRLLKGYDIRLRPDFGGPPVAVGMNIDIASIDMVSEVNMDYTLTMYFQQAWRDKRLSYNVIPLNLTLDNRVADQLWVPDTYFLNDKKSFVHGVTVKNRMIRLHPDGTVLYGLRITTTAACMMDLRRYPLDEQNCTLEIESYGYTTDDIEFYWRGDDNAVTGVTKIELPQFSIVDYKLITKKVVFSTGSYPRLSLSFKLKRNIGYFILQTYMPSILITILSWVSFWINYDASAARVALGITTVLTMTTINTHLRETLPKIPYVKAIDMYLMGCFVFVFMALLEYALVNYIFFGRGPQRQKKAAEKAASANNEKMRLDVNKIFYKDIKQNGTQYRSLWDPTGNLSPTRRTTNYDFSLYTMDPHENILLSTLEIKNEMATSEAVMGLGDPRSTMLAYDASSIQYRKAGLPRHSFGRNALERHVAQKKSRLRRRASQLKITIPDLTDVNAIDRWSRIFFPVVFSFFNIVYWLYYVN
Sequence of human GABAA receptors composed of the α1β2γ2 subunits (P18507 40-475 limits assumed): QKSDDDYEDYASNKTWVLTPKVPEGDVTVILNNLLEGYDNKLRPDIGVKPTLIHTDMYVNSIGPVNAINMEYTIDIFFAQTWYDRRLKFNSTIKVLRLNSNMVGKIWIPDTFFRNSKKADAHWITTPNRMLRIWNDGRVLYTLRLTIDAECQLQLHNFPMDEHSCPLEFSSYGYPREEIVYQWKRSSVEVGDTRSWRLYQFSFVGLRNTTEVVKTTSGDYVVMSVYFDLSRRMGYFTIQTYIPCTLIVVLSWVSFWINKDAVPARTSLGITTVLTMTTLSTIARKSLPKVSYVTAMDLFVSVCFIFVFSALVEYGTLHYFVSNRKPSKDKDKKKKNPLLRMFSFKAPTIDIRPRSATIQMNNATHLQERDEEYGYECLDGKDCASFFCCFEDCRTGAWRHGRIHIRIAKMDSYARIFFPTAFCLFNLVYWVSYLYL
Method in brief: (§1)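 Whole-cell recordings in HEK cells stably expressing each receptor, held at −120 mV, pH 7.4 extracellular/pH 7.2 KF-based intracellular solution. Submaximal GABA (3-5 μM or 10 μM) applied, then GABA plus compound at 0.029-30 μM (six concentrations, n=8-12 cells). Effect = peak current ratio GABA+compound/GABA alone; EC50 and Emax from concentration means.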

[3] = molecular target: human GABAA receptors composed of the α4β3δ subunits (Homo sapiens (Human), UniProt O14764+P28472+P48169); assay: α4β3δ SyncroPatch automated patch clamp assay; format: cell-based; conditions: for EC50: HEK cells, potentiation of submaximal GABA current, clamped at −120 mV; for α4β3δ EMAX: peak current after GABA+compound divided by peak current after GABA alone
Sequence of human GABAA receptors composed of the α4β3δ subunits (P48169 36-554 limits assumed): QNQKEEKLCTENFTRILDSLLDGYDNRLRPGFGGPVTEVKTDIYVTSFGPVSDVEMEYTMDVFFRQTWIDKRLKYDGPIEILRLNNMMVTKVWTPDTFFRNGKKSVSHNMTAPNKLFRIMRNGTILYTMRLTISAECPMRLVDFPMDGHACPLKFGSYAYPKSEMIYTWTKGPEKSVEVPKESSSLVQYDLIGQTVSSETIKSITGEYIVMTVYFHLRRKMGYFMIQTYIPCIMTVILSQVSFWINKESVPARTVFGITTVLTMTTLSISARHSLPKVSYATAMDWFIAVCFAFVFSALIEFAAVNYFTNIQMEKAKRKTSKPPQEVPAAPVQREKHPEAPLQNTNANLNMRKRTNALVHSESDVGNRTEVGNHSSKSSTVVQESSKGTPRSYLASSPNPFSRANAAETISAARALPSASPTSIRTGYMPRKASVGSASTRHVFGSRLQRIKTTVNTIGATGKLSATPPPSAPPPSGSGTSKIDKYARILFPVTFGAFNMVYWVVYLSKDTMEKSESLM
Sequence of human GABAA receptors composed of the α4β3δ subunits (P28472 26-473 limits assumed): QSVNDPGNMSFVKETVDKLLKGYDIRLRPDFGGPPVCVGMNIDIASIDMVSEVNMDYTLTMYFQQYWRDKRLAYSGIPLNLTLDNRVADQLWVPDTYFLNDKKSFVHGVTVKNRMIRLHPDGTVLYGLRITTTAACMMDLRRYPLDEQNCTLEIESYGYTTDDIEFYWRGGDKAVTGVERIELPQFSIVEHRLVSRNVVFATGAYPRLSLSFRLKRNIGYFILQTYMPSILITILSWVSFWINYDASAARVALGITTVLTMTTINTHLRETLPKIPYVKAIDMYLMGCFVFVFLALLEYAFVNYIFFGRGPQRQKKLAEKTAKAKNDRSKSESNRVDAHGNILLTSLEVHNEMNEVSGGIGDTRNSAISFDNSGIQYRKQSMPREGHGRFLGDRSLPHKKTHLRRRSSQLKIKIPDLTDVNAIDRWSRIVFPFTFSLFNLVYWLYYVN
Sequence of human GABAA receptors composed of the α4β3δ subunits (O14764 17-452 limits assumed): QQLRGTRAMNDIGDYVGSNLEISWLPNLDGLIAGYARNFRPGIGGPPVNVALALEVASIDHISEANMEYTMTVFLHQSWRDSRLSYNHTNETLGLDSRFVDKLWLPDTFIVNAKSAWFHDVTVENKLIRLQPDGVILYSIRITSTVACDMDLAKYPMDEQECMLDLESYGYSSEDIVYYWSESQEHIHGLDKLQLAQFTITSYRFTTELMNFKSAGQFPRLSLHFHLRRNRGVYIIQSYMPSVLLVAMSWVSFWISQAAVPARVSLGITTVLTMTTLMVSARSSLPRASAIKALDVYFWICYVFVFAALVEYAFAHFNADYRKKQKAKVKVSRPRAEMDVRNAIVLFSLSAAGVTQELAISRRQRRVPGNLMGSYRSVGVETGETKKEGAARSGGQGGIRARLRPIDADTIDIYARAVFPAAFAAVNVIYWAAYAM
Method in brief: as §1

C[C@H](Cc1nccc(C#N)n1)[C@H]1CC[C@H]2[C@@H]3CC[C@@H]4C[C@](C)(O)CC[C@@H]4[C@H]3CC[C@]12C [Example 436]
IC50 [1]: 100 to 1000 nM | EC50 [2]: 200 to 1000 nM | α1β2γ2 EMAX [2]: A (A indicates an Emax response <8) | EC50 [3]: ≥ 1000 nM | α4β3δ EMAX [3]: B (B indicates an Emax response 30 to <45)

Cc1cnc(C[C@@H](C)[C@H]2CC[C@H]3[C@@H]4CC[C@@H]5C[C@](C)(O)CC[C@@H]5[C@H]4CC[C@]23C)nc1 [Example 438]
IC50 [1]: 100 to 1000 nM | EC50 [2]: 200 to 1000 nM | α1β2γ2 EMAX [2]: A (A indicates an Emax response <8) | EC50 [3]: ≥ 1000 nM | α4β3δ EMAX [3]: B (B indicates an Emax response 30 to <45)

Cc1cnc(C[C@H](C)[C@H]2CC[C@H]3[C@@H]4CC[C@@H]5C[C@](C)(O)CC[C@@H]5[C@H]4CC[C@]23C)cn1 [Example 439]
IC50 [1]: < 100 nM | EC50 [2]: < 200 nM | α1β2γ2 EMAX [2]: C (C indicates an Emax response ≥10) | EC50 [3]: < 200 nM | α4β3δ EMAX [3]: C (C indicates an Emax response ≥45)

C[C@@H](Cc1ccc(C(F)(F)F)nc1)[C@H]1CC[C@H]2[C@@H]3CC[C@@H]4C[C@](C)(O)CC[C@@H]4[C@H]3CC[C@]12C [Example 443]
IC50 [1]: < 100 nM | EC50 [2]: < 200 nM | α1β2γ2 EMAX [2]: C (C indicates an Emax response ≥10) | EC50 [3]: < 200 nM | α4β3δ EMAX [3]: B (B indicates an Emax response 30 to <45)

C[C@@H](Cc1nc(C(F)(F)F)cs1)[C@H]1CC[C@H]2[C@@H]3CC[C@@H]4C[C@](C)(O)CC[C@]4(C)[C@H]3CC[C@]12C [Example 453]
IC50 [1]: < 100 nM | EC50 [2]: 200 to 1000 nM | α1β2γ2 EMAX [2]: A (A indicates an Emax response <8) | EC50 [3]: < 200 nM | α4β3δ EMAX [3]: A (A indicates an Emax response <30)

CCOC[C@@]1(O)CC[C@H]2[C@H](CC[C@@H]3[C@@H]2CC[C@]2(C)[C@@H]([C@H](CC)Cn4ccc(C#N)n4)CC[C@@H]32)C1 [Example 499, 1-((S)-2-((3R,5R,8R,9R,10S,13S,14S,17R)-3-(ethoxymethyl)-3-hydroxy-13-methylhexadecahydro-1H-cyclopenta[a]phenanthren-17-yl)butyl)-1H-pyrazole-3-carbonitrile]
IC50 [1]: < 100 nM | EC50 [2]: < 200 nM | α1β2γ2 EMAX [2]: A (A indicates an Emax response <8) | EC50 [3]: < 200 nM | α4β3δ EMAX [3]: A (A indicates an Emax response <30)
